{"source": "patent US20230312481A1", "about": "“SUBSTITUTED (PHTHALAZIN-1-YLMETHYL)UREAS, SUBSTITUTED N-(PHTHALAZIN-1-YLMETHYL)AMIDES, AND ANALOGUES THEREOF” (priority 2020, published 2023)", "test_system": "HBV rcDNA in HepDE19 cells", "assay": "HepDE19 assay with bDNA quantitation of HBV rcDNA", "assay_type": "cell-based, hepatitis B virus", "details": "Hepatitis B virus, HepDE19, 168 h, read-out: DE-19bDNA EC50", "protocol": "HepDE19 Assay With bDNA Quantitation of HBV rcDNA\nHepDE19 (50,000 cells/well) were plated in 96-well collagen-coated tissue-culture treated microtiter plates in DMEM/F12 medium supplemented with 10% fetal bovine serum, 1% penicillin-streptomycin and 1 µg/mL tetracycline and incubated in a humidified incubator at 37° C. and 5% CO2 overnight. Next day, the cells were switched to fresh medium without tetracycline and incubated for 4 hours at 37° C. and 5% CO2. […] The final DMSO concentration in the assay was 0.5%. The plates were incubated for 7 days in a humidified incubator at 37° C. and 5% CO2. Following a 7 day-incubation, the level of rcDNA present in the inhibitor-treated wells was measured using a Quantigene 2.0 bDNA assay kit (Affymetrix, Santa Clara, CA) with HBV specific custom probe set and manufacturers instructions. Concurrently, the effect of compounds on cell viability was assessed using replicate plates, plated at a density of 5,000 cells/well and incubated for 4 days, to determine the ATP content as a measure of cell viability using the cell-titer glo reagent (CTG; Promega Corporation, Madison, WI) as per manufacturer’s instructions.\nRepresentative compounds of the disclosure were tested for their abilities to inhibit formation of relaxed circular DNA (rcDNA) in a HepDE19 assay, as described elsewhere herein.", "key": {"[1]": {"details": "HepDE19 cells, 7 day incubation, rcDNA measured by Quantigene 2.0 bDNA assay, top concentration 25 µM"}}, "note": "Where two headings read alike, the source gives them in different places.", "data": [{"smiles": "CC(c1n[nH]c(=O)c2ccccc12)N(C)C(=O)Nc1ccc(F)c(Cl)c1", "note": "(racemic) [Compound 1, 3-(3-chloro-4-fluoro-phenyl)-1-methyl-1-[1-(4-oxo-3H-phthalazin-1-yl)ethyl]urea]", "values": [{"measurement": "EC50", "setting": "[1]", "result": 0.24, "unit": "µM"}]}, {"smiles": "CC(C)CN(C(=O)Nc1ccc(F)c(Cl)c1)C(C)c1n[nH]c(=O)c2ccccc12", "note": "(racemic) [Compound 2, 3-(3-chloro-4-fluoro-phenyl)-1-isobutyl-1-[1-(4-oxo-3H-phthalazin-1-yl)ethyl]urea]", "values": [{"measurement": "EC50", "setting": "[1]", "result": 0.01, "unit": "µM"}]}, {"smiles": "CC(C)CN(C(=O)Nc1ccc(F)c(Cl)c1)C(C)c1nn(C)c(=O)c2ccccc12", "note": "(racemic) [Compound 8, 3-(3-chloro-4-fluorophenyl)-1-isobutyl-1-(1-(3-methyl-4-oxo-3,4-dihydrophthalazin-1-yl)ethyl)urea]", "values": [{"measurement": "EC50", "setting": "[1]", "result": 0.02, "unit": "µM"}]}, {"smiles": "CC(C)CN(C(=O)Nc1ccc(F)cc1)C(C)c1nn(C)c(=O)c2ccccc12", "note": "(racemic) [Compound 9, 3-(4-fluorophenyl)-1-isobutyl-1-(1-(3-methyl-4-oxo-3,4-dihydrophthalazin-1-yl)ethyl)urea]", "values": [{"measurement": "EC50", "setting": "[1]", "result": 0.03, "unit": "µM"}]}, {"smiles": "CC(C)CN(C(=O)Nc1ccc(F)c(Cl)c1)C(C)c1n[nH]c(=O)c2cc(Cl)ccc12", "note": "(racemic) [Compound 10, 3-(3-chloro-4-fluorophenyl)-1-(1-(6-chloro-4-oxo-3,4-dihydrophthalazin-1-yl)ethyl)-1-isobutylurea]", "values": [{"measurement": "EC50", "setting": "[1]", "result": 0.02, "unit": "µM"}]}, {"smiles": "CC(C)CN(C(=O)Nc1ccc(F)cc1)C(C)c1n[nH]c(=O)c2cc(Cl)ccc12", "note": "(racemic) [Compound 11, 1-(1-(6-chloro-4-oxo-3,4-dihydrophthalazin-1-yl)ethyl)-3-(4-fluorophenyl)-1-isobutylurea]", "values": [{"measurement": "EC50", "setting": "[1]", "result": 0.04, "unit": "µM"}]}, {"smiles": "CC(c1n[nH]c(=O)c2cc(Cl)ccc12)N(C)C(=O)Nc1ccc(F)c(Cl)c1", "note": "(racemic) [Compound 12, 3-(3-chloro-4-fluorophenyl)-1-(1-(6-chloro-4-oxo-3,4-dihydrophthalazin-1-yl)ethyl)-1-methylurea]", "values": [{"measurement": "EC50", "setting": "[1]", "result": 0.26, "unit": "µM"}]}, {"smiles": "CC(c1n[nH]c(=O)c2cc(Cl)ccc12)N(CCCO)C(=O)Nc1ccc(F)c(Cl)c1", "note": "(racemic) [Compound 13, 3-(3-chloro-4-fluorophenyl)-1-(1-(6-chloro-4-oxo-3,4-dihydrophthalazin-1-yl)ethyl)-1-(3-hydroxypropyl)urea]", "values": [{"measurement": "EC50", "setting": "[1]", "result": 0.022, "unit": "µM"}]}, {"smiles": "CC(c1n[nH]c(=O)c2cc(Cl)ccc12)N(CCCO)C(=O)Nc1ccc(F)cc1", "note": "(racemic) [Compound 14, 1-(1-(6-chloro-4-oxo-3,4-dihydrophthalazin-1-yl)ethyl)-3-(4-fluorophenyl)-1-(3-hydroxypropyl)urea]", "values": [{"measurement": "EC50", "setting": "[1]", "result": 0.11, "unit": "µM"}]}, {"smiles": "CC(C)CN(C(=O)Nc1ccc(F)c(Cl)c1)C(C)c1n[nH]c(=O)c2cc(F)ccc12", "note": "(racemic) [Compound 15, 3-(3-chloro-4-fluorophenyl)-1-(1-(6-fluoro-4-oxo-3,4-dihydrophthalazin-1-yl)ethyl)-1-isobutylurea]", "values": [{"measurement": "EC50", "setting": "[1]", "result": 0.01, "unit": "µM"}]}, {"smiles": "CC(C)CN(C(=O)Nc1ccc(F)cc1)C(C)c1n[nH]c(=O)c2cc(F)ccc12", "note": "(racemic) [Compound 16, 1-(1-(6-fluoro-4-oxo-3,4-dihydrophthalazin-1-yl)ethyl)-3-(4-fluorophenyl)-1-isobutylurea]", "values": [{"measurement": "EC50", "setting": "[1]", "result": 0.016, "unit": "µM"}]}, {"smiles": "CC(c1n[nH]c(=O)c2cc(F)ccc12)N(C)C(=O)Nc1ccc(F)c(Cl)c1", "note": "(racemic) [Compound 17, 3-(3-chloro-4-fluorophenyl)-1-(1-(6-fluoro-4-oxo-3,4-dihydrophthalazin-1-yl)ethyl)-1-methylurea]", "values": [{"measurement": "EC50", "setting": "[1]", "result": 0.081, "unit": "µM"}]}, {"smiles": "CC(c1n[nH]c(=O)c2cc(F)ccc12)N(C)C(=O)Nc1ccc(F)cc1", "note": "(racemic) [Compound 18, 1-(1-(6-fluoro-4-oxo-3,4-dihydrophthalazin-1-yl)ethyl)-3-(4-fluorophenyl)-1-methylurea]", "values": [{"measurement": "EC50", "setting": "[1]", "result": 0.5, "unit": "µM"}]}, {"smiles": "CC(C)CN(C(=O)Nc1ccc(F)cc1)C(C)c1n[nH]c(=O)c2ccccc12", "note": "(racemic) [Compound 19, 3-(4-fluorophenyl)-1-isobutyl-1-(1-(4-oxo-3,4-dihydrophthalazin-1-yl)ethyl)urea]", "values": [{"measurement": "EC50", "setting": "[1]", "result": 0.048, "unit": "µM"}]}, {"smiles": "CC(c1nn(C)c(=O)c2cc(F)c(F)cc12)N(C)C(=O)Nc1ccc(F)c(Cl)c1", "note": "(racemic) [Compound 22, 3-(3-chloro-4-fluoro-phenyl)-1-[1-(6,7-difluoro-3-methyl-4-oxo-phthalazin-1-yl)ethyl]-1-methyl-urea]", "values": [{"measurement": "EC50", "setting": "[1]", "result": 0.026, "unit": "µM"}]}, {"smiles": "CC(C)CN(C(=O)Nc1ccc(F)c(Cl)c1)C(C)c1nn(C)c(=O)c2cc(F)c(F)cc12", "note": "(racemic) [Compound 23, 3-(3-chloro-4-fluorophenyl)-1-(1-(6,7-difluoro-3-methyl-4-oxo-3,4-dihydrophthalazin-1-yl)ethyl)-1-isobutylurea]", "values": [{"measurement": "EC50", "setting": "[1]", "result": 0.003, "unit": "µM"}]}, {"smiles": "CC(C)CN(C(=O)Nc1ccc(F)cc1)C(C)c1nn(C)c(=O)c2cc(F)c(F)cc12", "note": "(racemic) [Compound 24, 1-(1-(6,7-difluoro-3-methyl-4-oxo-3,4-dihydrophthalazin-1-yl)ethyl)-3-(4-fluorophenyl)-1-isobutylurea]", "values": [{"measurement": "EC50", "setting": "[1]", "result": 0.007, "unit": "µM"}]}, {"smiles": "CC(c1nn(C)c(=O)c2cc(F)c(F)cc12)N(CCCO)C(=O)Nc1ccc(F)c(Cl)c1", "note": "(racemic) [Compound 25, 3-(3-chloro-4-fluorophenyl)-1-(1-(6,7-difluoro-3-methyl-4-oxo-3,4-dihydrophthalazin-1-yl)ethyl)-1-(3-hydroxypropyl)urea]", "values": [{"measurement": "EC50", "setting": "[1]", "result": 0.01, "unit": "µM"}]}, {"smiles": "CC(c1nn(C)c(=O)c2cc(F)c(F)cc12)N(CCCO)C(=O)Nc1ccc(F)cc1", "note": "(racemic) [Compound 26, 1-(1-(6,7-difluoro-3-methyl-4-oxo-3,4-dihydrophthalazin-1-yl)ethyl)-3-(4-fluorophenyl)-1-(3-hydroxypropyl)urea]", "values": [{"measurement": "EC50", "setting": "[1]", "result": 0.031, "unit": "µM"}]}, {"smiles": "CC(C)CN(C(=O)Nc1ccc(F)c(Cl)c1)C(C)c1n[nH]c(=O)c2cc(F)c(F)cc12", "note": "(racemic) [Compound 27, 3-(3-chloro-4-fluorophenyl)-1-(1-(6,7-difluoro-4-oxo-3,4-dihydrophthalazin-1-yl)ethyl)-1-isobutylurea]", "values": [{"measurement": "EC50", "setting": "[1]", "result": 0.002, "unit": "µM"}]}, {"smiles": "CC(C)CN(C(=O)Nc1ccccc1)C(C)c1n[nH]c(=O)c2cc(F)c(F)cc12", "note": "(racemic) [Compound 28, 1-(1-(6,7-difluoro-4-oxo-3,4-dihydrophthalazin-1-yl)ethyl)-1-isobutyl-3-phenylurea]", "values": [{"measurement": "EC50", "result": 0.012, "unit": "µM"}]}, {"smiles": "CC(c1n[nH]c(=O)c2cc(F)c(F)cc12)N(C)C(=O)Nc1ccc(F)c(Cl)c1", "note": "(racemic) [Compound 29, 3-(3-chloro-4-fluorophenyl)-1-(1-(6,7-difluoro-4-oxo-3,4-dihydrophthalazin-1-yl)ethyl)-1-methylurea]", "values": [{"measurement": "EC50", "setting": "[1]", "result": 0.023, "unit": "µM"}]}, {"smiles": "CC(c1nn(C)c(=O)c2cc(F)c(F)cc12)N(CCS(=O)(=O)NC(=O)Nc1ccc(F)c(Cl)c1)C(=O)Nc1ccc(F)c(Cl)c1", "note": "(racemic) [Compound 30, 3-(3-chloro-4-fluoro-phenyl)-1-[2-[(3-chloro-4-fluorophenyl)carbamoylsulfamoyl]ethyl]-1-[1-(6,7-difluoro-3-methyl-4-oxo-phthalazin-1-yl)ethyl]urea]", "values": [{"measurement": "EC50", "setting": "[1]", "result": 0.058, "unit": "µM"}]}, {"smiles": "CC(C)CN(C(=O)NC1CC1)C(C)c1nn(C)c(=O)c2cc(F)c(F)cc12", "note": "(racemic) [Compound 33, 3-cyclopropyl-1-(1-(6,7-difluoro-3-methyl-4-oxo-3,4-dihydrophthalazin-1-yl)ethyl)-1-isobutylurea]", "values": [{"measurement": "EC50", "setting": "[1]", "result": 6.3, "unit": "µM"}]}, {"smiles": "CC(C)CN(C(=O)Nc1ccccc1)C(C)c1nn(C)c(=O)c2cc(F)c(F)cc12", "note": "(racemic) [Compound 34, 1-(1-(6,7-difluoro-3-methyl-4-oxo-3,4-dihydrophthalazin-1-yl)ethyl)-1-isobutyl-3-phenylurea]", "values": [{"measurement": "EC50", "result": 0.01, "unit": "µM"}]}, {"smiles": "CC(C)CN(C(=O)NC1CCCC1)C(C)c1nn(C)c(=O)c2cc(F)c(F)cc12", "note": "(racemic) [Compound 35, 3-cyclopentyl-1-(1-(6,7-difluoro-3-methyl-4-oxo-3,4-dihydrophthalazin-1-yl)ethyl)-1-isobutylurea]", "values": [{"measurement": "EC50", "result": 6.9, "unit": "µM"}]}, {"smiles": "CCN(C(=O)c1cc2cc(F)ccc2[nH]1)C(C)c1n[nH]c(=O)c2cc(F)c(F)cc12", "note": "(racemic) [Compound 47, N-(1-(6,7-difluoro-4-oxo-3,4-dihydrophthalazin-1-yl)ethyl)-N-ethyl-5-fluoro-1H-indole-2-carboxamide]", "values": [{"measurement": "EC50", "result": 0.041, "unit": "µM"}]}, {"smiles": "CCN(C(=O)c1cc2ccccc2[nH]1)C(C)c1n[nH]c(=O)c2cc(F)c(F)cc12", "note": "(racemic) [Compound 48, N-(1-(6,7-difluoro-4-oxo-3,4-dihydrophthalazin-1-yl)ethyl)-N-ethyl-1H-indole-2-carboxamide]", "values": [{"measurement": "EC50", "setting": "[1]", "result": 0.06, "unit": "µM"}]}, {"smiles": "CCN(C(=O)c1cc2c(F)c(F)ccc2[nH]1)C(C)c1n[nH]c(=O)c2cc(F)c(F)cc12", "note": "(racemic) [Compound 49, N-(1-(6,7-difluoro-4-oxo-3,4-dihydrophthalazin-1-yl)ethyl)-N-ethyl-4,5-difluoro-1H-indole-2-carboxamide]", "values": [{"measurement": "EC50", "setting": "[1]", "result": 0.025, "unit": "µM"}]}, {"smiles": "CC(c1n[nH]c(=O)c2cc(F)c(F)cc12)N(C)C(=O)c1cc2cc(F)c(F)cc2[nH]1", "note": "(racemic) [Compound 50, N-(1-(6,7-difluoro-4-oxo-3,4-dihydrophthalazin-1-yl)ethyl)-5,6-difluoro-N-methyl-1H-indole-2-carboxamide]", "values": [{"measurement": "EC50", "setting": "[1]", "result": 0.04, "unit": "µM"}]}, {"smiles": "CC(c1n[nH]c(=O)c2cc(F)c(F)cc12)N(C)C(=O)c1cc2cc(F)ccc2[nH]1", "note": "(racemic) [Compound 51, N-(1-(6,7-difluoro-4-oxo-3,4-dihydrophthalazin-1-yl)ethyl)-5-fluoro-N-methyl-1H-indole-2-carboxamide]", "values": [{"measurement": "EC50", "result": 0.039, "unit": "µM"}]}]}
